Test: xn = mol fraction of the nth substance listed

CS(C)=O + CC(=O)[O-].CC[NH2+]CC
Conditions	viscosity [mPa·s]
298.15 K, 101 kPa, x2 = 0	2.01

CS(C)=O + CC(=O)[O-].CC[NH+](CC)CC
101 kPa, x1 = 1
Conditions	viscosity [mPa·s]
298.15 K	1.99
303.15 K	1.79
308.15 K	1.65

CC[n+]1ccn(C)c1C.F[B-](F)(F)F + CC(C)=O
viscosity [mPa·s], 101.3 kPa
Conditions	x1 = 0.02954	x1 = 0.06403	x1 = 0.1051	x1 = 0.1544	x1 = 0.215	x1 = 0.2913	x1 = 0.3887	x1 = 0.5201
293.15 K	0.42	0.615	0.797	1.19	1.82	3.37	7.01	15.8
298.15 K	0.402	0.59	0.767	1.119	1.7	3.09	6.27	13.2
303.15 K	0.384	0.563	0.726	1.048	1.59	2.81	5.66	11.59
308.15 K	0.368	0.54	0.687	0.986	1.48	2.57	5.13	10.2
313.15 K	0.354	0.516	0.652	0.929	1.38	2.36	4.67	9.03
318.15 K	0.34	0.496	0.62	0.874	1.29	2.16	4.26	8.14
323.15 K	0.327	0.478	0.588	0.825	1.22	1.96	3.91	7.34

CCCC[N+](CCCC)(CCCC)CCCC.[Cl-] + CC(C)C[C@H](N)C(=O)O
100 kPa
Conditions	electrical conductivity, 313.15 K [S/m]	electrical conductivity, 323.15 K [S/m]	electrical conductivity, 333.15 K [S/m]	electrical conductivity, 343.15 K [S/m]	electrical conductivity, 353.15 K [S/m]	viscosity, 313.15 K [mPa·s]	viscosity, 323.15 K [mPa·s]	viscosity, 333.15 K [mPa·s]	viscosity, 343.15 K [mPa·s]	viscosity, 353.15 K [mPa·s]
x1 = 0.8889	0.0188	0.0377	0.0631	0.0885	0.12	1070	444	219	123	76
x1 = 0.9	0.0149	0.027	0.0441	0.068	0.0891	940	517	259	146	88.1
x1 = 0.9091	0.0194	0.0302	0.054	0.0761	0.0971	890	410	197	114	99

Source: the CheMixHub ionic liquid set
